This is an account of results in PubChem BioAssay AID1259407 (Chemical Carcinogenesis Research Information System (CCRIS), 2018).

Activity calls are given as the source filed them. How the calls were made is not given here.

The subject of the series is CCRIS mutagenicity, Ames/micronucleus/aberration tests. Kind of series: CCRIS mutagenicity studies.
[1] abbreviates: Test System: AMES SALMONELLA TYPHIMURIUM, Strain/Indicator: TA98, Metabolic Activation: NONE, Method: PREINCUBATION
Where [2] appears, read: Test System: AMES SALMONELLA TYPHIMURIUM, Strain/Indicator: TA100, Metabolic Activation: NONE, Method: PREINCUBATION
The mark [3] stands for this setting: Test System: AMES SALMONELLA TYPHIMURIUM, Strain/Indicator: TA98, Metabolic Activation: NONE, Method: STANDARD PLATE.
The mark [4] stands for this setting: Test System: AMES SALMONELLA TYPHIMURIUM, Strain/Indicator: TA98, Metabolic Activation: RAT, LIVER, S-9, AROCLOR 1254, Method: STANDARD PLATE.
The mark [5] stands for this setting: Test System: AMES SALMONELLA TYPHIMURIUM, Strain/Indicator: TA100, Metabolic Activation: NONE, Method: STANDARD PLATE.
Setting [6] is: Test System: AMES SALMONELLA TYPHIMURIUM, Strain/Indicator: TA100, Metabolic Activation: RAT, LIVER, S-9, AROCLOR 1254, Method: STANDARD PLATE.

Regarding `C=CC(=O)OCC(CO)(COC(=O)C=C)COC(=O)C=C`, the mutagenic call is, setting by setting: (End Point: In vivo micronucleus, Test System: Peripheral blood normochromatic erythrocytes, Species: Mouse, Strain/Sex: B6C3F1/Female) “inactive; negative”; (End Point: In vivo micronucleus, Test System: Peripheral blood normochromatic erythrocytes, Species: Mouse, Strain/Sex: B6C3F1/Male, Route: Dermal) “inactive; negative”; (End Point: In vivo micronucleus, Test System: Peripheral blood normochromatic erythrocytes, Species: Mouse, Strain/Sex: FVB.N/TgN (v-Ha-ras) Tg.AC hemizygous/Female, Route: Dermal) “active; positive”; (End Point: In vivo micronucleus, Test System: Peripheral blood normochromatic erythrocytes, Species: Mouse, Strain/Sex: FVB.N/TgN (v-Ha-ras) Tg.AC hemizygous/Male, Route: Dermal) “inactive; negative (described as equivocal by ntp)”; (Test System: AMES SALMONELLA TYPHIMURIUM, Strain/Indicator: TA98, Metabolic Activation: HAMSTER, LIVER, S-9, AROCLOR 1254 (10%), Method: PREINCUBATION) “inactive; negative”; under setting [1], “inactive; negative”. In addition, the mutagenic call is “inactive; negative” (Test System: AMES SALMONELLA TYPHIMURIUM, Strain/Indicator: TA98, Metabolic Activation: RAT, LIVER, S-9, AROCLOR 1254 (10%), Method: PREINCUBATION); “inactive; negative” (Test System: AMES SALMONELLA TYPHIMURIUM, Strain/Indicator: TA100, Metabolic Activation: HAMSTER, LIVER, S-9, AROCLOR 1254 (10%), Method: PREINCUBATION); “inactive; negative” under setting [2]; “inactive; negative” (Test System: AMES SALMONELLA TYPHIMURIUM, Strain/Indicator: TA100, Metabolic Activation: RAT, LIVER, S-9, AROCLOR 1254 (10%), Method: PREINCUBATION); “inactive; negative” (Test System: AMES SALMONELLA TYPHIMURIUM, Strain/Indicator: TA1535, Metabolic Activation: HAMSTER, LIVER, S-9, AROCLOR 1254 (10%), Method: PREINCUBATION); “inactive; negative” (Test System: AMES SALMONELLA TYPHIMURIUM, Strain/Indicator: TA1535, Metabolic Activation: NONE, Method: PREINCUBATION). Further, the mutagenic call by setting is: (Test System: AMES SALMONELLA TYPHIMURIUM, Strain/Indicator: TA1535, Metabolic Activation: RAT, LIVER, S-9, AROCLOR 1254 (10%), Method: PREINCUBATION) “inactive; negative”; (Test System: AMES SALMONELLA TYPHIMURIUM, Strain/Indicator: TA1537, Metabolic Activation: HAMSTER, LIVER, S-9, AROCLOR 1254 (10%), Method: PREINCUBATION) “inactive; negative”; (Test System: AMES SALMONELLA TYPHIMURIUM, Strain/Indicator: TA1537, Metabolic Activation: NONE, Method: PREINCUBATION) “inactive; negative”; (Test System: AMES SALMONELLA TYPHIMURIUM, Strain/Indicator: TA1537, Metabolic Activation: RAT, LIVER, S-9, AROCLOR 1254 (10%), Method: PREINCUBATION) “inactive; negative”; (Test System: MOUSE LYMPHOMA, Strain/Indicator: L5178Y (TK+/TK-), Metabolic Activation: NONE, Method: SUSPENSION/PLATE) “active; positive”.
For `ONc1ccc(I)cc1`, under “Test System: E. COLI, Strain/Indicator: WP2 UVRA, Metabolic Activation: NONE, Method: FLUCTUATION TEST”, the mutagenic call is “inactive; negative”.
Take `Clc1ccc(C(Cl)(Cl)Cl)cc1Cl`: the mutagenic call is “active; positive” (Test System: AMES SALMONELLA TYPHIMURIUM, Strain/Indicator: TA98, Metabolic Activation: HAMSTER, LIVER, S-9, AROCLOR 1254 (30%), Method: PREINCUBATION); “inactive; negative” under setting [1]; “active; positive” (Test System: AMES SALMONELLA TYPHIMURIUM, Strain/Indicator: TA98, Metabolic Activation: RAT, LIVER, S-9, AROCLOR 1254 (30%), Method: PREINCUBATION); “active; positive” (Test System: AMES SALMONELLA TYPHIMURIUM, Strain/Indicator: TA100, Metabolic Activation: HAMSTER, LIVER, S-9, AROCLOR 1254 (30%), Method: PREINCUBATION); “inactive; negative” under setting [2]; “active; positive” (Test System: AMES SALMONELLA TYPHIMURIUM, Strain/Indicator: TA100, Metabolic Activation: RAT, LIVER, S-9, AROCLOR 1254 (30%), Method: PREINCUBATION).
Turning to `CC(Cl)C(Br)CBr` (stereo not given), the mutagenic call (Test System: AMES SALMONELLA TYPHIMURIUM, Strain/Indicator: TA100, Metabolic Activation: RAT, LIVER, MICROSOMES, PHENOBARBITAL, Method: PREINCUBATION) was “active; positive” and the mutagenic call (Test System: AMES SALMONELLA TYPHIMURIUM, Strain/Indicator: TA100, Metabolic Activation: RAT, LIVER, MICROSOMES, Method: PREINCUBATION) is “active; positive”.
As to `CC(=O)N(O)c1ccc(Cl)c(Cl)c1`, the mutagenic call is “inactive; negative” (Test System: AMES SALMONELLA TYPHIMURIUM, Strain/Indicator: TA97, Metabolic Activation: NONE, Method: STANDARD PLATE); “inactive; negative” (Test System: AMES SALMONELLA TYPHIMURIUM, Strain/Indicator: TA97, Metabolic Activation: RAT, LIVER, S-9, AROCLOR 1254, Method: STANDARD PLATE); “inactive; negative” under setting [3]; “inactive; negative” under setting [4]; “inactive; negative” under setting [5]; “inactive; negative” under setting [6]. Moreover, the mutagenic call is “inactive; negative” (Test System: AMES SALMONELLA TYPHIMURIUM, Strain/Indicator: TA104, Metabolic Activation: NONE, Method: STANDARD PLATE) and “inactive; negative” (Test System: AMES SALMONELLA TYPHIMURIUM, Strain/Indicator: TA104, Metabolic Activation: RAT, LIVER, S-9, AROCLOR 1254, Method: STANDARD PLATE).
Consider `COc1cc(N)c(C)cc1N`, for which the mutagenic call by setting is: under setting [3], “inactive; negative”; under setting [4], “inactive; negative”; under setting [5], “inactive; negative”; under setting [6], “inactive; negative”; (Test System: AMES SALMONELLA TYPHIMURIUM, Strain/Indicator: TA1535, Metabolic Activation: NONE, Method: STANDARD PLATE) “inactive; negative”; (Test System: AMES SALMONELLA TYPHIMURIUM, Strain/Indicator: TA1535, Metabolic Activation: RAT, LIVER, S-9, AROCLOR 1254, Method: STANDARD PLATE) “inactive; negative”. Also, the mutagenic call (Test System: AMES SALMONELLA TYPHIMURIUM, Strain/Indicator: TA1537, Metabolic Activation: NONE, Method: STANDARD PLATE) was “inactive; negative”; the mutagenic call (Test System: AMES SALMONELLA TYPHIMURIUM, Strain/Indicator: TA1537, Metabolic Activation: RAT, LIVER, S-9, AROCLOR 1254, Method: STANDARD PLATE) is “inactive; negative”; the mutagenic call (Test System: AMES SALMONELLA TYPHIMURIUM, Strain/Indicator: TA1538, Metabolic Activation: NONE, Method: STANDARD PLATE) is “inactive; negative”; the mutagenic call (Test System: AMES SALMONELLA TYPHIMURIUM, Strain/Indicator: TA1538, Metabolic Activation: RAT, LIVER, S-9, AROCLOR 1254, Method: STANDARD PLATE) is “inactive; negative”.
In the case of `CCCNCC(=O)NC(=O)C=[N+]=[N-]`, the mutagenic call (Test System: UDS RODENT CELLS, Strain/Indicator: THY INCORP (NON-S-PHASE), Metabolic Activation: NONE, Method: AUTORADIOGRAPHY) is “active; positive”.
